Structures are written as SMILES. Counter-ions that a name gives are not always drawn.

The first series deals with dopamine transporter protein over the norepinephrine transporter protein. Conditions: selectivity for dopamine transporter protein over norepinephrine transporter protein; cited from earlier work.
Regarding `COC(=O)C(c1ccccc1)C1CCCCN1` (stereo not shown) [Methylphenidate], the “DAT/NET Ki ratio” value was 0.1.

System in another series: not given
Settings: not given
With `CN1Cc2cc(C(F)(F)F)ccc2C(c2ccccc2)C1` (stereo not shown), the melting point was 257 to 275 °C.

The compound `Cc1ccc2c(c1)C(C)N(C)CC2c1ccccc1` (stereo not shown) gave a melting point of 87 to 89 °C.

The compound `FCc1ccc2c(c1CF)CN(CF)CC2c1ccccc1` (stereo not shown) returned a melting point of 108 to 113 °C.

For the compound `Cc1c(F)ccc2c1CN(C)CC2c1ccccc1` (stereo not shown), the melting point is 185 to 186 °C.

`COc1c(C)ccc2c1CN(C)CC2c1ccccc1` (stereo not shown) displayed a melting point of 130 to 131 °C.

`Cc1ccc2c(c1O)CN(C)CC2c1ccccc1` (stereo not shown) registered a melting point of 260 to 261 °C.

In the case of `CN1Cc2cc(OC(F)(F)F)ccc2C(c2ccccc2)C1` (stereo not shown), the melting point is 150 to 151 °C (dec.).

Regarding `CN1Cc2cc(Oc3ccccc3)ccc2C(c2ccccc2)C1` (stereo not shown), the melting point is 175 to 176 °C (dec.).

For `CN1Cc2cc(OCc3ccccc3)ccc2C(c2ccccc2)C1` (stereo not shown), the melting point lay within 155 to 156 °C.

In the case of `Cc1ccc2c(c1)CN(C)CC2c1ccc(F)c(C)c1` (stereo not shown), the melting point lay within 174 to 175 °C.

The compound `CN1Cc2c(CO)cccc2C(c2ccccc2)C1` (stereo not shown) came in with a melting point of 144 to 146 °C.

With `Cc1cc(F)c2c(c1)C(C)N(C)C(F)C2c1ccccc1` (stereo not shown) (as salt: HCl), the melting point was 194 to 197 °C (dec.).

For `CNCc1ccc2c(c1F)CN(C)CC2c1ccccc1` (stereo not shown) (as salt: HCl), the melting point lay in the range of 185 to 205 °C.

Consider `CN1Cc2cc(CO)ccc2C(c2ccccc2)C1` (stereo not shown) (as salt: HCl), for which the melting point is 237 to 240 °C (dec.).

For `Cc1ccc2c(c1F)CN(C)CC2c1ccccc1` (stereo not shown) (as salt: hydrochloride), the melting point is 215 to 216 °C.

(Values after patent publication US7163949B1, “4-phenyl substituted tetrahydroisoquinolines and use thereof” (AMR Technology, Inc., priority 1999, dated 2007).)
